Assay results as given in patent publication US10398751B2, “Pharmaceutical compositions of water soluble peptides with poor solubility in isotonic conditions and methods for their use” (STRONGBRIDGE IRELAND LIMITED, priority 2016, dated 2019).
Counter-ions that a name gives are not always drawn. Like-named read-outs stand apart in the source and are kept apart here.

Assay: Solubility screening of veldoreotide acetate (10 mg, incremental volumes of medium, USP definition)
Assay type: physicochemical
From the text: The solubility of veldoreotide acetate in aqueous media was screened by the following method. A fixed amount of 10 milligrams of the peptide was weighed and dissolved at ambient temperature by increased (incremental) volumes of the tested medium until a complete solubility was observed, i.e, clear/transparent solution and absence of any precipitates (the solubility endpoint values were defined according to USP guidance). Following the results of the screening studies, several media were selected for verification studies based on quantitative assessment of the peptide concentration by HPLC (maximal solubility). The results of the screening study are depicted in Table 1 while the results of the verification studies are included in Table 2.

Measured: solubility

C[C@@H](O)[C@@H]1NC(=O)[C@H](CCCCN)NC(=O)[C@@H](Cc2c[nH]c3ccccc23)NC(=O)[C@H](Cc2c[nH]c3ccccc23)NC(=O)[C@H](Cc2ccccc2)NC(=O)CCCNC(=O)CCCN(CC(N)=O)C(=O)[C@H](Cc2ccccc2)NC1=O [Veldoreotide Acetate, Cyclo(-γ-aminobutyryl-L-phenylalanyl-L-tryptophanyl-D-tryptophanyl-L-lysyl-L-threonyl-L-phenylalanyl-N-carbamoylmethyl-γ-aminobutyryl), acetate salt]
> 1 mg/mL: Acetone (USP), 10 ml Slightly soluble (0.001 g/ml; 1 mg/ml), 10 mg in Acetone (USP) | Dextrose 5% (USP), 10 ml Slightly soluble (0.001 g/ml; 1 mg/ml), 10 mg in Dextrose 5% (USP) | Ethanol (USP), 10 ml Slightly soluble (0.001 g/ml; 1 mg/ml), 10 mg in Ethanol (USP) | Lactic acid 37 mM, Mannitol 250 mM, pH 4.3, 10 ml Slightly soluble (0.001 g/ml; 1 mg/ml), 10 mg in Lactic acid 37 mM, Mannitol 250 mM (pH 4.3) | Propylene glycol, 10 ml Slightly soluble (0.001 g/ml; 1 mg/ml), 10 mg in Propylene glycol | caprylic acid, 10 ml Slightly soluble (0.001 g/ml; 1 mg/ml), 10 mg in Caprylic acid | double distilled water, 10 ml Slightly soluble (0.001 g/ml; 1 mg/ml), 10 mg in DDW (Double distilled water) | glycerol, 10 ml Slightly soluble (0.001 g/ml; 1 mg/ml), 10 mg in Glycerol | water for injection (WFI-USP), 10 ml Slightly soluble (0.001 g/ml; 1 mg/ml), 10 mg in WFI-USP (water for injection)
< 1 mg/mL: PBS, pH 7.2, 10 ml Slightly soluble (0.001 g/ml; 1 mg/ml), 10 mg in PBS pH 7.2 | Saline (USP) (0.9% NaCl), pH 4.5, 10 ml Slightly soluble (0.001 g/ml; 1 mg/ml), 10 mg in Saline (USP) (0.9% NaCl) pH 4.5 | oleic acid, 10 ml Slightly soluble (0.001 g/ml; 1 mg/ml), 10 mg in Oleic acid | refined vegetable oils (olive, cotton, coconut, canola), 10 ml Slightly soluble (0.001 g/ml; 1 mg/ml), 10 mg in Refined vegetable oils, Olive, Cotton, Coconut, Canola
> 20 mg/mL: Dextrose 5% (USP), 10 mg in Dextrose 5% (USP), read-out: 0.5 ml Soluble (0.02 g/ml; 20 mg/ml) | Ethanol (USP), 10 mg in Ethanol (USP), read-out: 0.5 ml Soluble (0.02 g/ml; 20 mg/ml) | Lactic acid 37 mM, Mannitol 250 mM, pH 4.3, 10 mg in Lactic acid 37 mM, Mannitol 250 mM (pH 4.3), read-out: 0.5 ml Soluble (0.02 g/ml; 20 mg/ml) | Propylene glycol, 10 mg in Propylene glycol, read-out: 0.5 ml Soluble (0.02 g/ml; 20 mg/ml) | caprylic acid, 10 mg in Caprylic acid, read-out: 0.5 ml Soluble (0.02 g/ml; 20 mg/ml) | double distilled water, 10 mg in DDW (Double distilled water), read-out: 0.5 ml Soluble (0.02 g/ml; 20 mg/ml) | glycerol, 10 mg in Glycerol, read-out: 0.5 ml Soluble (0.02 g/ml; 20 mg/ml) | water for injection (WFI-USP), 10 mg in WFI-USP (water for injection), read-out: 0.5 ml Soluble (0.02 g/ml; 20 mg/ml)
> 100 mg/mL: Acetone (USP), 0.1 ml Freely soluble (0.1 g/ml), 10 mg in Acetone (USP) | Dextrose 5% (USP), 0.1 ml Freely soluble (0.1 g/ml), 10 mg in Dextrose 5% (USP) | Ethanol (USP), 0.1 ml Freely soluble (0.1 g/ml), 10 mg in Ethanol (USP) | Lactic acid 37 mM, Mannitol 250 mM, pH 4.3, 0.1 ml Freely soluble (0.1 g/ml), 10 mg in Lactic acid 37 mM, Mannitol 250 mM (pH 4.3) | Propylene glycol, 0.1 ml Freely soluble (0.1 g/ml), 10 mg in Propylene glycol | double distilled water, 0.1 ml Freely soluble (0.1 g/ml), 10 mg in DDW (Double distilled water)
> 10 mg/mL: Dextrose 5% (USP), 10 mg in Dextrose 5% (USP), read-out: 1 ml Sparingly soluble (0.01 g/ml; 10 mg/ml) | Ethanol (USP), 10 mg in Ethanol (USP), read-out: 1 ml Sparingly soluble (0.01 g/ml; 10 mg/ml) | Lactic acid 37 mM, Mannitol 250 mM, pH 4.3, 10 mg in Lactic acid 37 mM, Mannitol 250 mM (pH 4.3), read-out: 1 ml Sparingly soluble (0.01 g/ml; 10 mg/ml) | Propylene glycol, 10 mg in Propylene glycol, read-out: 1 ml Sparingly soluble (0.01 g/ml; 10 mg/ml) | caprylic acid, 10 mg in Caprylic acid, read-out: 1 ml Sparingly soluble (0.01 g/ml; 10 mg/ml) | double distilled water, 10 mg in DDW (Double distilled water), read-out: 1 ml Sparingly soluble (0.01 g/ml; 10 mg/ml) | glycerol, 10 mg in Glycerol, read-out: 1 ml Sparingly soluble (0.01 g/ml; 10 mg/ml) | water for injection (WFI-USP), 10 mg in WFI-USP (water for injection), read-out: 1 ml Sparingly soluble (0.01 g/ml; 10 mg/ml)
< 1000 mg/mL: Dextrose 5% (USP), 10 mg in Dextrose 5% (USP), read-out: 0.01 ml Very soluble (1 g/ml) | Ethanol (USP), 10 mg in Ethanol (USP), read-out: 0.01 ml Very soluble (1 g/ml) | Lactic acid 37 mM, Mannitol 250 mM, pH 4.3, 10 mg in Lactic acid 37 mM, Mannitol 250 mM (pH 4.3), read-out: 0.01 ml Very soluble (1 g/ml) | PBS, pH 7.2, 10 mg in PBS pH 7.2, read-out: 0.01 ml Very soluble (1 g/ml) | Propylene glycol, 10 mg in Propylene glycol, read-out: 0.01 ml Very soluble (1 g/ml) | Saline (USP) (0.9% NaCl), pH 4.5, 10 mg in Saline (USP) (0.9% NaCl) pH 4.5, read-out: 0.01 ml Very soluble (1 g/ml) | caprylic acid, 10 mg in Caprylic acid, read-out: 0.01 ml Very soluble (1 g/ml) | double distilled water, 10 mg in DDW (Double distilled water), read-out: 0.01 ml Very soluble (1 g/ml) | glycerol, 10 mg in Glycerol, read-out: 0.01 ml Very soluble (1 g/ml) | oleic acid, 10 mg in Oleic acid, read-out: 0.01 ml Very soluble (1 g/ml) | refined vegetable oils (olive, cotton, coconut, canola), 10 mg in Refined vegetable oils, Olive, Cotton, Coconut, Canola, read-out: 0.01 ml Very soluble (1 g/ml) | water for injection (WFI-USP), 10 mg in WFI-USP (water for injection), read-out: 0.01 ml Very soluble (1 g/ml)
< 10 mg/mL: PBS, pH 7.2, 10 mg in PBS pH 7.2, read-out: 1 ml Sparingly soluble (0.01 g/ml; 10 mg/ml) | Saline (USP) (0.9% NaCl), pH 4.5, 10 mg in Saline (USP) (0.9% NaCl) pH 4.5, read-out: 1 ml Sparingly soluble (0.01 g/ml; 10 mg/ml) | oleic acid, 10 mg in Oleic acid, read-out: 1 ml Sparingly soluble (0.01 g/ml; 10 mg/ml) | refined vegetable oils (olive, cotton, coconut, canola), 10 mg in Refined vegetable oils, Olive, Cotton, Coconut, Canola, read-out: 1 ml Sparingly soluble (0.01 g/ml; 10 mg/ml)
< 20 mg/mL: PBS, pH 7.2, 10 mg in PBS pH 7.2, read-out: 0.5 ml Soluble (0.02 g/ml; 20 mg/ml) | Saline (USP) (0.9% NaCl), pH 4.5, 10 mg in Saline (USP) (0.9% NaCl) pH 4.5, read-out: 0.5 ml Soluble (0.02 g/ml; 20 mg/ml) | oleic acid, 10 mg in Oleic acid, read-out: 0.5 ml Soluble (0.02 g/ml; 20 mg/ml) | refined vegetable oils (olive, cotton, coconut, canola), 10 mg in Refined vegetable oils, Olive, Cotton, Coconut, Canola, read-out: 0.5 ml Soluble (0.02 g/ml; 20 mg/ml)
< 100 mg/mL: PBS, pH 7.2, 0.1 ml Freely soluble (0.1 g/ml), 10 mg in PBS pH 7.2 | Saline (USP) (0.9% NaCl), pH 4.5, 0.1 ml Freely soluble (0.1 g/ml), 10 mg in Saline (USP) (0.9% NaCl) pH 4.5 | caprylic acid, 0.1 ml Freely soluble (0.1 g/ml), 10 mg in Caprylic acid | glycerol, 0.1 ml Freely soluble (0.1 g/ml), 10 mg in Glycerol | oleic acid, 0.1 ml Freely soluble (0.1 g/ml), 10 mg in Oleic acid | refined vegetable oils (olive, cotton, coconut, canola), 0.1 ml Freely soluble (0.1 g/ml), 10 mg in Refined vegetable oils, Olive, Cotton, Coconut, Canola | water for injection (WFI-USP), 0.1 ml Freely soluble (0.1 g/ml), 10 mg in WFI-USP (water for injection)
